Data published in patent publication US12097276B2, “Cosmetic composition comprising theasinensin A” (AMOREPACIFIC CORPORATION, priority 2018, dated 2024).

What was measured:
[1] = Stability of the active ingredient in solubilized formulations (remaining titer by HPLC); type: physicochemical; settings: stored at 25° C.
Description: The following experiment was conducted to investigate the stability of theasinensin A as an active ingredient.
First, a solubilized formulation comprising the theasinensin A prepared in Preparation Example (Example 1) and a solubilized formulation comprising EGCG (Comparative Example 1) were prepared with the following compositions.
Then, the titer of theasinensin A or EGCG remaining in the formulations of Example 1 and Comparative Example 1 was analyzed by high-performance liquid chromatography (HPLC) with 1-week intervals. Specifically, after storing 10 mL of each composition of Example 1 and Comparative Example 1 at 25° C. and sonicating the same with 1-week intervals after diluting 10 fold with methanol followed by filtering, the content was analyzed by HPLC.

[2] = tested on: melanin production in B16 cells; test: Inhibition of intra/extracellular melanin production in α-MSH-treated B16 cells; type: cell-based; settings: 72 hours; for extracellular melanin content compared to the control group treated only with α-MSH / intracellular melanin content compared to the control group treated only with α-MSH: B16 cells, 200 nM α-MSH, 2.5, 5 or 10 ppm
Description: For investigation of the skin-brightening effect of theasinensin A, the effect of inhibiting intra/extracellular melanin production was tested as follows.
First, after treating B16 cells (ATCC, Cat No CRL-6475) with 200 nM of α-melanocyte-stimulating hormone (α-MSH) and with theasinensin A as an example of the present disclosure or EGCG as a comparative example at nontoxic concentrations of 10 ppm or lower (2.5, 5 or 10 ppm), the intracellular and extracellular melanin contents 72 hours after the treatment were measured by correcting to the protein contents, and represented as % of melanin contents with respect to a non-theasinensin A-treated control group.
The intracellular melanin content is shown in FIG. 5 (TSA) and FIG. 6 (EGCG), and the extracellular melanin content is shown in FIG. 7 (TSA) and FIG. 8 (EGCG).

[3] = DPPH radical-scavenging assay (antioxidant effect); settings: 100 μM DPPH in ethanol, 37° C., 30 minutes
Description: For investigation of the antioxidant effect of theasinensin A, the effect of inhibiting 2,2-diphenyl-1-picrylhydrazyl (DPPH) was tested as follows.
The 2,2-diphenyl-1-picrylhydrazyl (DPPH, Sigma D9132) radical dissolved in an organic solvent has the maximum absorbance at 515 nm. Since an antioxidant substance scavenges the DPPH radical and turns it colorless, antioxidant effect can be compared by measuring the DPPH radical-scavenging activity of theasinensin A through DPPH assay.
First, theasinensin A (TSA) was dissolved in ethanol such that the concentration of the theasinensin A (TSA) was 0.3125, 0.625, 1.25, 2.5, 5 and 10 ppm, respectively. The solutions of different concentrations were added to a 96-well plate, 10 μL each. Then, after adding 190 μL of 100 μM DPPH completely dissolved in ethanol to each solution and storing at 37° C. for 30 minutes, absorbance was measured at 515 nm.
DPPH assay was conducted in the same manner for 0.625, 1.25, 2.5, 5 and 10 ppm of vitamin C (Vit.C) as positive control groups and a negative control group (N.T.) not treated with theasinensin A (TSA) or vitamin C (Vit.C).

[4] = tested on: matrix metalloproteinase-1 (MMP-1) expression in UVB-irradiated HS68 cells; test: Inhibition of MMP-1 expression in UVB-irradiated HS68 cells (ELISA); type: cell-based, human; settings: 48 hours
Description: For investigation of the effect of reducing skin wrinkles and enhancing skin elasticity of theasinensin A, the effect of inhibiting the expression of matrix metalloproteinase-1 (MMP-1), which is a collagenase in the human body, was tested as follows.
First, a cell culture was prepared by treating UVB-irradiated HS68 cells (ATCC, Cat No CRL-1635) with the theasinensin A prepared in Preparation Example at 2.5, 5 or 10 ppm. After culturing HS68 cells (ATCC, Cat No CRL-1635) in a separate medium and adding phosphate-buffered saline (PBS) thereto after removing the medium, UVB was irradiated with an intensity of 30 mJ/cm^2. The UVB-irradiated cells were treated with the previously prepared theasinensin A-treated culture and cultured for 48 hours in an incubator. After recovering the culture, MMP-1 expression level was measured using a MMP-1 ELISA kit (Amersham, RPN2610).

[5] = about 4 weeks later, solubilized formulation with 0.02 wt % active (Example 1 / Comparative Example 1)

amount of active ingredient remaining in the solubilized formulation (of total amount used) ([1]; 1 week later, solubilized formulation with 0.02 wt % active (Comparative Example 1)) | amount of active ingredient remaining in the solubilized formulation (of total amount used) [1, 5] | IC50 of DPPH activity inhibition ([3]; absorbance at 515 nm) [ppm] | SMILES | extracellular melanin content compared to the control group treated only with α-MSH [2] | intracellular melanin content compared to the control group treated only with α-MSH [2] | concentration at which DPPH activity was inhibited significantly [3] [ppm] | inhibition of MMP-1 expression ([4]; UVB-irradiated (30 mJ/cm^2) HS68 cells, 2.5, 5 or 10 ppm, concentration-dependent) [%] | concentration at which MMP-1 expression level was inhibited significantly ([4]; UVB-irradiated HS68 cells) [ppm] | inhibition at 10 ppm ([2]; Mus musculus, 10 ppm, B16 cells with 200 nM α-MSH) [%]
less than 80 wt % | less than 40 wt % | – | O=C(O[C@@H]1Cc2c(O)cc(O)cc2O[C@@H]1c1cc(O)c(O)c(O)c1)c1cc(O)c(O)c(O)c1 [EGCG, epigallocatechin gallate, reference compound] | increased | increased | – | – | – | –
– | ≥ 87 wt % | 5.9 | O=C(O[C@@H]1Cc2c(O)cc(O)cc2O[C@@H]1c1cc(O)c(O)c(O)c1-c1c([C@H]2Oc3cc(O)cc(O)c3C[C@H]2OC(=O)c2cc(O)c(O)c(O)c2)cc(O)c(O)c1O)c1cc(O)c(O)c(O)c1 [theasinensin A] | decreased melanin content | decreased melanin content | ≥ 0.3 | ≥ 50 | ≥ 2.5 | ~30
